Data as given in patent US20080188502A1, “New Compounds I” (AstraZeneca AB, priority 2006, published 2008).

Molecular target: T1, recombinant human GSK3β (Homo sapiens, UniProt P49841)
T1 construct: purchased Dundee University, UK
Test: GSK3β Scintillation Proximity Assay (ATP competition)
Format: biochemical
Conditions: inhibition constants calculated with Km of ATP for GSK3β of 20 μM; 1 μM ATP, 1 μM biotinylated peptide substrate
Method: Determination of ATP Competition in Scintillation Proximity GSK3β Assay.
GSK3β Scintillation Proximity Assay.
The competition experiments were carried out in duplicate with 10 different concentrations of the inhibitors in clear-bottom microtiter plates (Wallac, Finland). A biotinylated peptide substrate, Biotin-Ala-Ala-Glu-Glu-Leu-Asp-Ser-Arg-Ala-Gly-Ser(PO3H2)-Pro-Gln-Leu (AstraZeneca, Lund), was added at a final concentration of 1 μM in an assay buffer containing 1 mU recombinant human GSK3β (Dundee University, UK), 12 mM morpholinepropanesulfonic acid (MOPS), pH 7.0, 0.3 mM EDTA, 0.01% β-mercaptoethanol, 0.004% Brij 35 (a […] detergent), 0.5% glycerol and 0.5 μg BSA/25 μl. The reaction was initiated by the addition of 0.04 μCi [γ-^33P]ATP (Amersham, UK) and unlabelled ATP at a final concentration of 1 μM and assay volume of 25 μl. After incubation for 20 minutes at room temperature, each reaction was terminated by the addition of 25 μl stop solution containing 5 mM EDTA, 50 μM ATP, 0.1% Triton X-100 and 0.25 mg streptavidin coated Scintillation Proximity Assay (SPA) beads (Amersham, UK). After 6 hours the radioactivity was determined in a liquid scintillation counter (1450 MicroBeta Trilux, Wallac). The inhibition curves were analysed by non-linear regression using GraphPad Prism, USA. The Km value of ATP for GSK3β, used to calculate the inhibition constants (Ki) of the various compounds, was 20 μM.

T1 sequence (P49841 whole entry): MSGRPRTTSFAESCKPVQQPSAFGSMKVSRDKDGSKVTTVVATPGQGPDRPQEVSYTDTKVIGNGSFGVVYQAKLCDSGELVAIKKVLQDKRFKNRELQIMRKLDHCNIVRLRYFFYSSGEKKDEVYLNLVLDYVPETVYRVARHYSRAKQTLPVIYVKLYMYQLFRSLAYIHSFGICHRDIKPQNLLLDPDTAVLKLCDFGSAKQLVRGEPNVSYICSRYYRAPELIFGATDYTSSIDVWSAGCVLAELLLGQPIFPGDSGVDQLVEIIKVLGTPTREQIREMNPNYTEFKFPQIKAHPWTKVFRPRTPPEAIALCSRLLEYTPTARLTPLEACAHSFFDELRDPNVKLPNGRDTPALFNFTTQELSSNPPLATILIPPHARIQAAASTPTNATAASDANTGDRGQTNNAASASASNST

- Ki: 30 nM
SMILES: Cc1ncc(-c2nc(Nc3ccc(S(=O)(=O)N4CCN(C)CC4)nc3)ncc2F)n1C1CCOCC1 [Example 58, {5-Fluoro-4-[2-methyl-3-(tetrahydro-pyran-4-yl)-3H-imidazol-4-yl]-pyrimidin-2-yl}-[6-(4-methyl-piperazine-1-sulfonyl)-pyridin-3-yl]-amine]
